Experimental data from patent publication EP0443518A2, “Pharmaceutical containing episialo complex carbohydrate” (MECT CORPORATION, priority 1990, dated 1991).
“Also recorded” adds a separate entry of the source.

Assays:
[1] = tested on: normal sera derived from C57BL/6 femal mice; test: ELISA: reactivity of normal mouse serum with gangliosides; format: binding; conditions: C57BL/6 female mice 9 weeks old, 100 ng ganglioside per well, absorbance at 490 nm, Fig. 1
Procedure: (§1) A serum was obtained by clotting of blood which was collected from a mouse retroorbitally (eyeground method) and removing the clotted blood by centrifugation.
(§2) ELISA assay was conducted by the conventional method.
100 ng of each ganglioside dissolved in ethanol was added to each well of a 96-well microtiter plate and then allowed to stand at 37°C to remove ethanol completely. A blocking solution comprising a phosphate buffer solution (PBS) containing 5% of bovine serum albumin (BSA) or the like was added to the wells and the plate was incubated at 37°C for 2 hours. After the blocking solution was removed, the collected mouse serum was added to each well and the plate was incubated at 37°C for 1 hour. Each well was washed with a phosphate buffer solution containing 1% of BSA. Anti-mouse IgG, IgM and IgA antibodies which were labeled with peroxidase were added to each well and the plate was incubated at 37°C for 1 hour. Each well was washed with a phosphate buffer solution containing 1% of BSA. A substrate solution containing 400 µg/ml of o-phenylenediamine and 0.001% of hydrogen peroxide was added to each well, and the reaction was conducted at room temperature for 15 minutes. 8N sulfuric acid was added to stop the reaction and then the absorbance of the reaction mixture in each well was measured at 490 nm by using a spectrophotometer for a microtiter plate. […]

[2] = tested on: sera derived from C57BL/6 female mice (9 weeks old) implanted with B16 melanoma cells; test: ELISA: reactivity of serum of tumor-implanted mice with gangliosides; format: binding, mouse; conditions: for Reactivity of mouse serum: sera of mice implanted with B16 melanoma cells, 2 weeks after implantation, 100 ng ganglioside per well, absorbance at 490 nm, Fig. 2
Procedure: as §1, §2
(§3) 100 ng of each ganglioside dissolved in ethanol was added to each well of a 96-well microtiter plate and then allowed to stand at 37°C to remove ethanol completely. A blocking solution comprising a phosphate buffer solution (PBS) containing 5% of bovine serum albumin (BSA) or the like was added to the wells and the plate was incubated at 37°C for 2 hours. After the blocking solution was removed, the collected mouse serum was added to each well and the plate was incubated at 37°C for 1 hour. Each well was washed with a phosphate buffer solution containing 1% of BSA. Anti-mouse IgG, IgM and IgA antibodies which were labeled with peroxidase were added to each well and the plate was incubated at 37°C for 1 hour. Each well was washed with a phosphate buffer solution containing 1% of BSA. A substrate solution containing 400 µg/ml of o-phenylenediamine and 0.001% of hydrogen peroxide was added to each well, and the reaction was conducted at room temperature for 15 minutes. 8N sulfuric acid was added to stop the reaction and then the absorbance of the reaction mixture in each well was measured at 490 nm by using a spectrophotometer for a microtiter plate.
In Fig. 2, ●, △, ▲ and □ show the data with respect to a serum derived from a tumor the diameter of which is 5 mm or less, 6 mm, 8 mm and 16 mm, respectively.
Values shown in Fig. 1 and Fig. 2 were obtained by subtracting background values and taking the average of three wells.
Values shown in Fig. 3 were obtained by subtracting background values and taking the average of three wells.

[3] = tested on: reactivity of mouse serum with epiGM₃; test: ELISA: inhibition by acetylneuraminic acid of the reactivity of mouse serum with epiGM₃; format: binding; conditions: sodium N-acetylneuraminate solutions of various concentration added to serum of tumor-implanted mouse; Fig. 4
Procedure: as §3
Sodium N-acetylneuraminate solutions of various concentration were added to the same sera of mice as those used in the above (2). Values shown in Fig. 4 were obtained by subtracting background values and taking the average of three wells. […]

SMILES	Reactivity of mouse serum [1]	Reactivity of mouse serum [2]	Inhibition of the reactivity of mouse serum with epiGM₃ [3]	reaction level / reactivity compared with sera derived from normal mice ([2]; sera of mice implanted with B16 melanoma cells versus normal sera, Fig. 2 versus Fig. 1)	reactivity (rank among GM₃, epiGM₃, GM₄, epiGM₄, GM₅ and epiGM₅) ([2]; serum of the mouse with a 6 mm tumor, diluted 200 times, Fig. 3)
CCCCCCCCCCCCCC=CC(O)C(COC1OC(CO)C(OC2OC(CO)C(O)C(OC3(C(=O)O)CC(O)C(NC(C)=O)C(C(O)C(O)CO)O3)C2O)C(O)C1O)NC(=O)CCCCCCCCCCCCCCCCCCCCCCC (stereo not shown) [GM₃, reference compound]	did not react	did not react	–	–	–
CC(=O)N[C@H]1[C@H]([C@H](O)[C@H](O)CO)OC(O)(C(=O)O)C[C@@H]1O (stereo partly shown) [N-acetylneuraminic acid]	–	–	inhibited	–	–
CCCCCCCCCCCCCC=CC(O)C(COC1OC(CO)C(OC2OC(CO)C(O)C(OC3(C(=O)O)CC(O)C(NC(C)=O)C(C(O)C(O)CO)O3)C2O)C(O)C1O)NC(=O)CCCCCCCCCCCCCCCCCCCCCCC (stereo not shown) [epiGM₃]	reacted	reacted	–	remarkably increased; also recorded: stronger	strongest
